# Bridge positions count the residues as written; N and C are the ends. Square brackets hold non-standard residues; d marks the D form. Peptide text beside a SMILES is read from it. * marks the point of attachment. Biotin = O=C1N[C@H]2[C@H](CS[C@H]2CCCCC(=O)*)N1; Tyr(3-I) = N[C@@H](Cc1ccc(O)c(I)c1)C(=O)O
# Columns and labels:
# [1] = tested on: SRIF receptor; conditions: pituitary cells; Kirk et al. 1984; cited from earlier work
# [2] = tested on: SRIF receptor; test: Binding of [125I]Bio-SRIF analogs to GH4 C1 membranes (CPM bound); set-up: species or system rat
# Experimental: 3. Chemical cross-linking of radioligand with receptor is done after a binding step identical to the standard assay. However, the wash step is done with binding buffer minus BSA to reduce the possibility of non-specific cross-linking of radioligand with BSA. The cross-linking step is carried out as described below.
# (§1) To compare the three biotinyl-SRIF analogs in terms of binding to streptavidin, the following experiment is done. [^125 I]Bio-SRIF analogs are bound to GH4 C1 membranes as described ("Methods: Receptor Binding Methods, 3"). All radioligands are at a concentration of […] cpm/ml. For each radioligand, a control for non-specific binding was done in the presence of 1 uM cold S14. CPM bound/mg membrane protein after the binding step are as follows: [^125 I]Bio-6C-S14=755,020 (total) and 43,361 (non-specific); [^125 I]Bio-12C=S14=633,134 (total) and 39,538 (nonspecific); [^125 I]Bio-S28=1,065,512 (total) and 35,049 (nonspecific). The membrane pellets are solubilized in solubilization buffer containing 0.15% deoxycholate:lysolecithin and 0.2 mM MgCl2 as described ("Methods: Membrane Solubilization"). […] One ml samples of solubilized membranes are incubated with 0.05 ml vols of streptavidin-agarose at 4°-10° C. on a tube rotator for the times shown. Non-specific binding samples are not done due to the low levels of non-specific binding. At the times shown, the […] beads are spun down and 100 ul samples of supernatant are counted. The cpm are compared to initial cpm in the sample and % binding to SA is calculated from this. Also, it should be noted that binding of cpm from the supernatant is considered to parallel the binding of R:L complex. Several observations confirm that this is a valid assumption.
# [3] = molecular target: T1, Immobilized Streptavidin (Streptomyces avidinii, UniProt P22629); test: Binding of [125I]-labelled biotinyl-SRIFs (solubilized R:L complex) to immobilized streptavidin
# T1 construct: purchased Pierce Chemical Co
# Experimental: as §1
# [4] = molecular target: T1, Immobilized Streptavidin; test: Tracing of SRIF R:L complex with [125I]Bio-S28: adsorption to streptavidin-agarose during purification; format: binding
# Experimental: 3. Adsorption of solubilized R:L complex to streptavidin. Immobilized streptavidin (streptavidin cross-linked to 6% beaded agarose, Pierce Chemical Co.; "SA-agarose") is washed in solubilization buffer and added to the solubilized membranes as 1/30 of the final volume. This mixture is incubated with constant stirring by end-over-end rotation for 4-5 hours at 4°-10° C. Then the mixture is applied to a column and the non-bound material is washed through. Binding of radioligand to SA-agarose is determined by comparing cpm in the 100,000×g supernatant with that in the column effluent after adsorption to SA-agarose. Finally, the column is washed with 12-15 column volumes of solubilization buffer+0.15% deoxycholate:lysolecithin +1/500 (vol/vol) 100×4pase.
# (§2) A preparation of SRIF receptor is purified from 17 mg GH4 C1 pituitary cell membranes as described in "Methods: Receptor Purification". Some important features of this experiment are as follows: Two 17 mg samples of membranes are used. Both are incubated with 10^-8 M Bio-S28. However, one sample also receives 10^-5 M non-biotinyl S14 for 2-3 minutes before addition of any Bio-S28. This serves to block binding of Bio-S28 and creates a control to show non-specific binding of proteins to the streptavidin column. Also, each sample receives 1.5×10^8 cpm of [^125 I]Bio-S28 as a tracer. This is added 2-3 minutes before the addition of cold Bio-S28. After a 1-hour binding step, the membranes are washed in binding buffer without BSA and solubilized in solubilization buffer containing 0.15% deoxycholate:lysolecithin and 0.2 mM MgCl2. Each 100,000×g supernatant (17 ml) is incubated with 0.6 ml of streptavidin-agarose for 4 hours at 4°-10° C. The SA-agarose is transferred to a 0.7 cm diameter column, washed and eluted with EDTA/EGTA/GTP-gamma-S as described ("Methods: Receptor Purification").
# (§3) Radioligand is followed through the procedure to estimate solubilization of R:L complex and % initial binding of R:L complex to immobilized streptavidin.
# As discussed above, this should approximate the binding of R:L complex to streptavidin.
# [5] = molecular target: SRIF receptor; test: Scatchard analysis of binding of [125I]-labelled SRIF analogs to GH4 C1 membranes; set-up: species or system rat; conditions: GH4 C1 membranes (FIG. 2), read-out: dissociation constant (KD)
# Experimental: 1. Standard Binding Assays--Binding assays are done in a binding buffer containing 50 mM HEPES (pH 7.4), 0.5% BSA and 5 mM MgCl2. The standard assay for [^125 I]SRIF analog binding to GH4 C1 membranes, done in 96 well microtiter plates (Dynataech Immulon II Removawell plates), is carried out as follows: 1. Radioligand is diluted in binding buffer+ PMSF/Baci to the desired cpm per vol. of 50 μl and then 50 μl aliquots are added to the wells. For non-specific binding samples, 5 μl of 40 μM cold S14 is also added per well. 2. Binding is initiated by adding 150 μl per well of membrane diluted to the desired concentration (10-30 ug membrane protein/well) in binding buffer+ PMSF/Baci. Plates are then covered with Linbro mylar plate sealers (Flow Labs) and placed on a Dynatech Microshaker II and binding is allowed to proceed at room temperature for 1-2 hours. Binding is stopped by centrifuging the plate for 15 minutes at 2,000×g. The supernatants are dumped off and membrane pellets washed once by addition of 200 μl of ice cold binding buffer, brief shaking and recentrifugation. Finally the individual wells are placed in 12×75 mm tubes and counted in an LKB Gammamaster counter (78% efficiency). Specific binding by this method is identical to that measured when free ligand is removed by rapid (3-5 seconds) filtration and washing on polyethyleneimine-coated glass fiber filters.
# Because Bio-C6-S14, Bio-C12-S14 and Bio-S28 all contain tyrosine residues, it is possible to prepare their [^125 I] labelled analogs and carry out Scatchard analyses of their binding affinities relative to [^125 I]Tyr11-S14 (FIG. 2). As shown in the figure, the [^125 I]-labelled peptides fall in the same order of potency as their non-labelled forms. The dissociation constants (KDs) and relative binding affinities are [^125 I]Tyr11-S14 (0.1 nM)>[^125 I]Bio-S28 (0.2 nM)>[^125I]Bio-6C-S14 (0.3 nM)>[^125 I]Bio-12C-S14 (0.4 nM).
# [6] = tested on: SRIF receptor; test: Tracing of SRIF R:L complex with [125I]Bio-S28: membrane binding and deoxycholate:lysolecithin solubilization; set-up: species or system rat
# Experimental: 1. Binding of biotinyl-SRIF to GH4 C1 membranes. The binding step is carried out as described in Section 4 of "Receptor Binding Methods". Incubations are for 1 hour at room temperature. In the standard purification protocol, the binding incubations contain 10 nM Bio-S29/ [^125 I]Bio-S28 is added as a tracer at levels of 5,000-100,000 cpm per mg of membrane protein. Control incubations contain 10 uM cold S14 to saturate the receptor with non-biotinylated ligand.
# 2. Solubilization of receptor:ligand complex. This is done as described ("Membrane Solubilization"), with 0.15% deoxycholate:lysolecithin in solubilization buffer containing 0.2 mM MgCl2, to obtain 100,000×g supernatants containing solubilized R:L complex.
# as §2, §3
# [7] = 10^-8 M Bio-S28 + 10^-5 M S14 (NSB)
# T1 sequence (P22629 25-183): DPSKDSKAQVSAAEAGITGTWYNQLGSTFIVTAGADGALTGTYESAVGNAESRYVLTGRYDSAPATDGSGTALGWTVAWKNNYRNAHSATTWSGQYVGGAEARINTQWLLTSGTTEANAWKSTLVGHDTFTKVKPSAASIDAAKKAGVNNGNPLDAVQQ
Compound,decrease of binding of [125I]Tyr1-SRIF [1],"CPM bound/mg membrane protein (total) ([2]; after the binding step, total)",CPM bound/mg membrane protein (non-specific) ([2]; in the presence of 1 uM cold S14),"Initial CPM ([3]; 100 ul of initial 100,000 x g supernatant containing soluble R:L complex)","CPM (non-bound), 1 hour ([3]; 100 ul supernatant after 1 hour incubation with SA-agarose, 4-10 C)","CPM (non-bound), 3 hours ([3]; 100 ul supernatant after 3 hours incubation with SA-agarose, 4-10 C)","% Binding of Radioligand to SA-Agarose, 1 hour, % Bound ([3]; 1 hour incubation with SA-agarose) [%]","% Binding of Radioligand to SA-Agarose, 3 hours, % Bound ([3]; 3 hours incubation with SA-agarose) [%]",Solubilized CPM Non-Bound to Streptavidin (%) ([4]; 10^-8 M Bio-S28),"Solubilized CPM Non-Bound to Streptavidin (%) [4, 7] [%]",specifically bound radioligand bound to streptavidin ([4]; calculation from Table 2) [%],Kd [5] [pM],CPM Solubilized by Deoxycholate:Lysolecithin (%) ([6]; 10^-8 M Bio-S28),"CPM Initially Bound to Membranes [6, 7]","CPM Solubilized by Deoxycholate:Lysolecithin (%) [6, 7] [%]",CPM Initially Bound to Membranes ([6]; ligand in binding step 10^-8 M Bio-S28)
pertussis toxin,more than 95%,–,–,–,–,–,–,–,–,–,–,–,–,–,–,–
CC(C)C[C@H](NC(=O)[C@H](C)NC(=O)[C@@H]1CCCN1C(=O)[C@H](CC(N)=O)NC(=O)[C@H](CO)NC(=O)[C@H](CC(N)=O)NC(=O)[C@H](C)NC(=O)[C@H](CO)NC(=O)CCCC[C@@H]1SC[C@@H]2NC(=O)N[C@@H]21)C(=O)N[C@@H](C)C(=O)N1CCC[C@H]1C(=O)N[C@@H](CCCNC(=N)N)C(=O)N[C@@H](CCC(=O)O)C(=O)N[C@@H](CCCNC(=N)N)C(=O)N[C@@H](CCCCN)C(=O)N[C@@H](C)C(=O)NCC(=O)N[C@H]1CSSC[C@@H](C(=O)O)NC(=O)[C@H](CO)NC(=O)[C@H]([C@@H](C)O)NC(=O)[C@H](Cc2ccc(O)c(I)c2)NC(=O)[C@H]([C@@H](C)O)NC(=O)[C@H](CCCCN)NC(=O)[C@@H](Cc2c[nH]c3ccccc23)NC(=O)[C@H](Cc2ccccc2)NC(=O)[C@H](Cc2ccccc2)NC(=O)[C@H](CC(N)=O)NC(=O)[C@H](CCCCN)NC1=O [[^125 I]Bio-S28] (Biotin-SANSNPALAPRERKAGCKNFF[dW]KT[Tyr(3-I)]TSC-OH; disulfide 17-28),–,"1,065,512 CPM bound/mg membrane protein","35,049 CPM bound/mg membrane protein","92,534 CPM","31,645 CPM","17,098 CPM",66,82,28,15,72,200,91,"9,316 CPM",73,"59,132 CPM"

# Reference: patent publication US5331094A, “Purified active somatostatin receptor” (American Cyanamid Company, priority 1992, dated 1994)
